# Values of other authors as cited in patent US7304085B2, “Nitrogen-containing heteroaryl derivatives” (Genelabs Technologies, Inc., priority 2003, dated 2007).
# Assays:
# HCV = conditions: treatment of HCV, long term efficacy
compound,measurement,setting,value
interferon,response rate,HCV,about 25%
"NC(=O)c1ncn([C@@H]2O[C@H](CO)[C@@H](O)[C@H]2O)n1 [Ribavirin, 1-β-D-ribofuranosyl-1H-1,2,4-triazole-3-carboxamide]",patients with significant hemolysis,currently recommended doses,10-20%
same,teratogenicity / embryotoxicity,in vivo,teratogenic and embryotoxic
